The values below are quoted from earlier work in PMC8453943 (Clinical Pharmacology in Drug Development, 2021).

Structures are written as SMILES.

In this series the test system is EGFR. The settings on record: NSCLC with EGFR exon 20 insertion mutations; cited from earlier work.

Turning to `C#Cc1cccc(Nc2ncnc3cc(OCCOC)c(OCCOC)cc23)c1` [erlotinib], the Median progression-free survival result is given as “≈ 2 months”.

For `C=CC(=O)Nc1cc(Nc2nccc(-c3cn(C)c4ccccc34)n2)c(OC)cc1N(C)CCN(C)C` [osimertinib], the Median progression-free survival result is “≈ 2 months”.
